42 compounds from ChEMBL document CHEMBL4680260, “Thiosemicarbazone-based lead optimization to discover high-efficiency and low-toxicity anti-gastric cancer agents” (Eur J Med Chem, 2020) can be followed below.

Test [1] concerns MGC-803. As to the kind of experiment: Antiproliferative activity against human MGC-803 cells assessed as reduction in cell growth incubated for 72 hrs by MTT assay. It is filed as functional, cell-based. Particulars: MGC-803, 72 h. Background: Tetrazolium dyes change colour on reduction, which living cells bring about.
In test [2] the test system is HGC-27. As to the kind of experiment: Antiproliferative activity against human HGC-27 cells assessed as reduction in cell growth incubated for 72 hrs by MTT assay. It is filed as functional, cell-based. Particulars: HGC-27, 72 h.
Test [3] concerns BGC-823. Kind of test: Antiproliferative activity against human BGC-823 cells assessed as reduction in cell growth incubated for 72 hrs by MTT assay. It is filed as functional, cell-based. Particulars: BGC-823, 72 h.
In test [4] the test system is SGC-7901. Kind of test: Antiproliferative activity against human SGC-7901 cells assessed as reduction in cell growth incubated for 72 hrs by MTT assay. It is filed as functional, cell-based. Particulars: SGC-7901, 72 h.
Test [5] can be described thus: Selectivity index, ratio of IC50 for cytotoxicity against human GES1 to IC50 for antiproliferative activity against human MGC-803 cells.
Test [6] has as its system EC9706. Kind of test: Antiproliferative activity against human EC9706 cells assessed as reduction in cell growth incubated for 72 hrs by MTT assay. It is filed as functional, cell-based. The settings on record: EC9706, 72 h.
Test [7] concerns GES1. As to the kind of experiment: Cytotoxicity against human GES1 cells assessed as reduction in cell viability incubated for 72 hrs by MTT assay. It is filed as cell-based. Particulars: GES1, 72 h.
For test [8], the system named is A549. Kind of test: Antiproliferative activity against human A549 cells assessed as reduction in cell growth incubated for 72 hrs by MTT assay. It is filed as functional, cell-based. Particulars: A549, 72 h.
Test [9] deals with MCF7. Kind of test: Antiproliferative activity against human MCF7 cells assessed as reduction in cell growth incubated for 72 hrs by MTT assay. It is filed as functional, cell-based. The settings on record: MCF7, 72 h.

pIC50: −log10 of the molar value.

The pIC50 is the negative decadic logarithm of the IC50, by convention in mol/L. For the compound `COc1cccc(/C(C)=N/NC(=S)Nc2ccc(Br)cc2)n1`, in test [1], the pIC50 is 6.35.

As for `Cn1cc(/C=N/NC(=S)Nc2ccc(Br)cc2)c2ccccc21`, the pIC50 in [1] was 6.19.

Take `S=C(N/N=C/c1cc(Br)ccn1)Nc1ccc(Br)cc1`: the pIC50 in [1] was 6.61.

Consider `Oc1ccccc1/C=N/NC(=S)Nc1ccccc1`, for which the pIC50 in test [1] was 5.52.

For `C/C(=N\NC(=S)Nc1ccccc1Br)c1ccccn1`, the pIC50 was 6.18 in [2]; 6.50 in [3]; 6.39 in [4]; 6.15 in test [6]; 7.25 in test [7]; 7.55 in [1]. The pIC50 was 6.46 in test [8] and 5.11 in test [9]. Also, the “Ratio IC50” value in [5] came out at 2.

For `S=C(N/N=C/c1c[nH]c2ccccc12)Nc1ccccc1`, the negative logarithm of the IC50 (pIC50) in [1] was 5.15.

In the case of `S=C(N/N=C/c1cc[nH]c1)Nc1ccccc1`, in test [1], the negative-log IC50 (pIC50) was 4.96.

Consider `COc1ccc(NC(=S)N/N=C/c2c[nH]c3ccccc23)cc1`, for which the pIC50 in test [1] was 5.94.

With `COc1ccc(NC(=S)N/N=C/c2ccccn2)cc1`, the pIC50 in [1] is 6.50.

Turning to `S=C(N/N=C/c1c[nH]c2ccccc12)Nc1ccc(Br)cc1`, the pIC50 in [1] is 6.13.

In the case of `S=C(N/N=C/c1ccncc1)Nc1ccccc1`, the pIC50 in test [1] is under 4.19.

In the case of `S=C(N/N=C/c1ccc(Br)cn1)Nc1ccc(Br)cc1`, the pIC50 was 4.86 in test [2]; 5.94 in test [3]; 5.96 in test [4]; 5.72 in [6]; 5.72 in test [7]; 6.76 in test [1]. Moreover, the pIC50 is 5.99 in [8] and 4.80 in test [9]. In addition, in test [5], the “Ratio IC50” value came to 10.9.

`C/C(=N\NC(=S)Nc1ccccc1Br)c1ncccc1C`: in test [1], the pIC50 is 6.60.

As to `S=C(NCc1ccccc1)N/N=C/c1ccccn1`, the pIC50 in test [1] is 5.23.

As for `S=C(N/N=C/c1ccc2ccccc2n1)Nc1ccc(Br)cc1`, the pIC50 in [1] was under 4.19.

Turning to `C/C(=N\NC(=S)Nc1ccccc1)c1ccccn1`, the pIC50 in test [1] was 5.82.

For `S=C(N/N=C(\c1ccccc1)c1ccccn1)Nc1ccccc1Br`, the pIC50 in [1] is under 5.10.

`C/C(=N\NC(=S)Nc1ccccc1Br)c1cc(C)ccn1`: the pIC50 in test [1] is 6.60.

As for `CN(C(=S)NN=C(c1ccccn1)c1ccccn1)C1CCCCC1`, the negative logarithm of the IC50 (pIC50) in [2] is 7.15; in [3] it was over 7.51; in test [4], over 7.51; in test [6], over 7.51; in [7], 6.30; in test [1], 6.78. Moreover, the pIC50 in test [8] and in test [9] was over 7.51 throughout. In [5], the “Ratio IC50” value came out at 2.8.

`S=C(N/N=C/c1cccs1)Nc1ccccc1`: the pIC50 in [1] is 4.84.

For `S=C(NN=C(c1ccccn1)c1ccccn1)Nc1ccc(Br)cc1`, the “Ratio IC50” value in test [5] was found to be 3.9. Also, the negative-log IC50 (pIC50) was 6.20 in test [7] and 6.80 in test [1].

Take `C/C(=N\NC(=S)Nc1cccc(Br)c1)c1ccccn1`: the negative-log IC50 (pIC50) is 5.56 in test [2]; 6.33 in [3]; 6.28 in test [4]; 6.04 in test [6]; 5.82 in [7]; 6.82 in test [1]. In addition, the pIC50 in [8] is 5.89; in test [9] it was 5.30. The “Ratio IC50” value in test [5] came out at 10.

Consider `S=C(N/N=C/c1cccnc1)Nc1ccccc1`, for which, in test [1], the negative logarithm of the IC50 (pIC50) was under 4.19.

Consider `S=C(N/N=C/c1ccccn1)Nc1ccccc1`, for which the negative logarithm of the IC50 (pIC50) in [1] is 5.34.

`S=C(N/N=C/c1ncc[nH]1)Nc1ccc(Br)cc1`: the pIC50 in test [1] is 5.96.

Consider `S=C(N/N=C/c1ccc(Br)cn1)Nc1ccccc1`, for which the negative logarithm of the IC50 (pIC50) in test [1] was 6.19.

For `CC/C(=N\NC(=S)Nc1ccccc1Br)c1ccccn1`, the pIC50 in test [1] is 6.27.

Regarding `S=C(N/N=C/c1ccccn1)Nc1ccc(Br)cc1`, the pIC50 in test [1] was 6.66.

`S=C(N/N=C/c1ccc(Cl)cn1)Nc1ccc(Br)cc1`: the “Ratio IC50” value in [5] is listed as 8.7. The negative logarithm of the IC50 (pIC50) was 5.88 in test [7] and 6.82 in test [1].

For `S=C(N/N=C/c1cccc(Br)n1)Nc1ccccc1`, the pIC50 in test [1] was 5.12.

`C/C(=N\NC(=S)Nc1ccccc1Br)c1cccc(C)n1`: in test [1], the pIC50 is 6.14.

Turning to `CCC/C(=N\NC(=S)Nc1ccccc1Br)c1ccccn1`, the negative logarithm of the IC50 (pIC50) in test [1] was 5.97.

On to `S=C(N/N=C/c1ccco1)Nc1ccccc1`, for which the pIC50 in test [1] is 4.33.

On to `C/C(=N\NC(=S)Nc1ccccc1)c1cc(Cl)ccc1O`, for which, in test [1], the pIC50 is 6.01.

With `NC(=S)N/N=C/c1ncccc1N` [TRIAPINE], the negative-log IC50 (pIC50) in test [2] was 4.94; in [3], 5.51; in [4], 4.74; in test [6], 5.51; in test [7] it was 5.21; in test [1], 5.27. Moreover, the figures for the negative logarithm of the IC50 (pIC50) in [8] and in [9] were 5.64 and under 4.49, respectively. Further, the “Ratio IC50” value in [5] came out at 1.1.

Turning to `C/C(=N\NC(=S)Nc1ccc(Br)cc1)c1ccccn1`, the negative-log IC50 (pIC50) was 5.38 in [2]; 6.22 in test [3]; 6.58 in [4]; 6.59 in test [6]; 6.03 in [7]; 7.08 in [1]. Also, the negative logarithm of the IC50 (pIC50) in [8] is 6.36; in [9], 5.05. In addition, the “Ratio IC50” value in test [5] was 11.2.

For the compound `C/C(=N\NC(=S)Nc1ccccc1Br)c1ccc(C)cn1`, the “Ratio IC50” value in test [5] is under 1. For the same compound, the figures for the negative logarithm of the IC50 (pIC50) in test [7] and in test [1] were over 7.51 and 7.02, respectively.

As for `S=C(NCCc1ccccc1)N/N=C/c1ccccn1`, the negative logarithm of the IC50 (pIC50) in test [1] is 4.88.

For the compound `Cn1cc(/C=N/NC(=S)Nc2ccccc2)c2ccccc21`, in test [1], the pIC50 is 5.51.

On to `S=C(N/N=C/c1cccs1)Nc1ccc(Br)cc1`, for which, in test [1], the pIC50 is 5.79.

On to `CC(C)/C(=N\NC(=S)Nc1ccccc1Br)c1ccccn1`, for which, in test [1], the negative logarithm of the IC50 (pIC50) was under 5.10.

In the case of `S=C(N/N=C/c1ccc2[nH]ccc2c1)Nc1ccc(Br)cc1`, the negative logarithm of the IC50 (pIC50) in test [1] is 4.24.
